This is an account of results in paper PMC12948223, “HSP70 Interactome‐Mediated Proteolysis Targeting Chimera (HSP70‐PROTAC) for Ferroptosis‐Driven Cancer Treatment” (Advanced Science, 2025).

The structures appear in SMILES notation.

For data set [1], the target named is T1, GPX4 (Homo sapiens, UniProt P36969).
T1 sequence (P36969 1-170 isoform P36969-2): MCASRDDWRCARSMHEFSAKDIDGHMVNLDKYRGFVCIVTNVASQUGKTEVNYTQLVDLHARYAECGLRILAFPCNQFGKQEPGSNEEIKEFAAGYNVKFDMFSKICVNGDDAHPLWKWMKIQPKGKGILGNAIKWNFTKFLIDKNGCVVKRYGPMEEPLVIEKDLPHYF
In words: Ubiquitination assay of GPX4 in HT1080 cells. In kind it is cell-based. As to conditions: 1 µM, 12 h. Set-up: determine the changes in the endogenous levels of GPX4 by western blot assay; endogenous in cells; host or cells: HT1080 fibrosarcoma cells, including siRNA-knockdown derivatives. The method, then:
HT1080 cells were seeded in 15 cm culture dishes and allowed to adhere overnight. Then, the cells were treated with either 1 µM GDAz‐3 or an equivalent volume of DMSO for 12 h. Next, the proteasome inhibitor MG‐132 (5 µM) was added, and the cells were further incubated for 6 h. Once the incubation was completed, the cells were harvested and subjected to lysis using an IP lysis solution (#P0013J, Beyotime, Shanghai, China) to extract proteins. Then, the cell lysates were incubated with the GPX4 antibody (Proteintech, #67763‐1‐Ig, 1:100) overnight at 4 °C. Subsequently, protein A/G‐magnetic beads (#P2179, Beyotime, Shanghai, China) were added, and the mixture was incubated at 4 °C for 2 h on a rotator. After incubation, the beads were washed four times with immunoprecipitation buffer and then boiled in 1× loading buffer. The protein samples were then subjected to SDS‐PAGE analysis to evaluate the interactions between the target proteins. Finally, western blotting was used to detect proteins of interest in the co‐immunoprecipitation products. The ubiquitin assay was carried out under denaturing conditions.

The test system of the next data set is HT1080 xenograft tumor. In words: HT1080 xenograft tumor mouse model, antitumor efficacy and safety. Type of data set: in vivo. The note with it: for TGI (tumor growth inhibition): 17 days. The method, then: Motivated by the aforementioned in vitro findings, we subsequently sought to evaluate the in vivo antitumor efficacy of GDAz‐3 using an HT1080 xenograft tumor mouse model. The tumor‐bearing mice were randomly divided into six groups, minimizing weight and tumor size differences among the groups (n = 6 in each group). The treatment group mice were administered once daily by intraperitoneal injection (IP) with GDAz‐3 at a dosage of 30 or 60 mg kg^−1, while the control group animals were treated with the corresponding solvent, ML162, and apoptozole at a dosage of 30 mg kg^−1. Additionally, we set up a drug combination group to confirm the superiority of GDAz‐3. After treatment for 17 days, animals were humanely euthanized and the tumors were excised (Figure 7B). […] The advantage of the safety of GDAz‐3 was also determined by the hematoxylin and eosin (H&E) staining. […] In general, compared with the single inhibitor or their combination, the in vivo antitumor study confirmed the efficacy and safety of GDAz‐3.
The experimental procedures of the animal experiments were permitted by the Hangzhou Institute of Medicine (HIM), Chinese Academy of Sciences (AP2024‐07‐0010). Male BALB/c nude mice (6 weeks old) were housed under pathogen‐free conditions, maintained at a constant room temperature, and fed standard rodent chow and water. An HT1080 fibrosarcoma xenograft model in nude mice was established through subcutaneous transplantation. When the tumors emerged, the mice were randomly divided into six groups with six mice in each group: GDAz‐3‐treated at 30 or 60 mg kg^−1 group and control groups, including the vehicle group, and each of the two inhibitor‐treated groups (ML162 and apoptozole) at 30 mg kg^−1, and their combinations. The mice were intraperitoneally (IP) injected daily according to their body weight. Body weight and tumor size were measured every other day, and the tumor volume and body weight were recorded every other day after drug treatment. After treatment, the animals were euthanized by cervical dislocation, and the tumor bulks were peeled off and weighed. The organ tissues (tumor, heart, liver, spleen, lung, and kidney) were harvested and fixed with 4% paraformaldehyde for hematoxylin‐eosin (H&E) and immunohistochemistry (IHC) staining. In addition, the expression of GPX4 in tumor samples was analyzed in vehicle‐ and GDAz‐3‐treated groups by western blot assay.

The target of data set [2] is T1, GPX4. In words: In-cell western (ICW) GPX4 degradation in HT1080 cells. In kind it is cell-based. The note with it: 24 h. Set-up: determine the changes in the endogenous levels of GPX4 by western blot assay; endogenous in cells; host or cells: HT1080 fibrosarcoma cells, including siRNA-knockdown derivatives. The method, then:
To further confirm this degradation efficacy, an in‐cell western (ICW) assay, a quantitative immunofluorescence cell‐based technique, was performed to quantify the relative expression level of GPX4 after treatment with GDAz‐3 for 24 h. […] Given the promising GPX4 degradation activity of GDAz‐3, we extended our evaluation to additional ferroptosis‐sensitive cell lines, including triple‐negative breast cancer cells (MDA‐MB‐231) and melanoma cells (mouse B16‐F10). […] Based on the observation that GDAz‐3 was particularly effective in HT1080 cells, we selected this cell line for further degradation mechanism and ferroptosis pharmacodynamics studies.
HT1080 cells were seeded into 96‐well plates at a density of 1 × 10⁴ cells per well and cultured overnight. After 24‐h treatment with the drugs, the culture medium was removed, and 150 µL of 4% paraformaldehyde was added to each well to fix the cells at 4 °C for 20 min. The paraformaldehyde was removed, and 150 µL of 0.2% Triton X‐100 was added to each well. The cells were permeabilized by shaking at room temperature for 30 min. After removing the Triton X‐100, 50 µL of 1% BSA buffer was added to each well, and shaken at room temperature for 90 min. […] The PBS was discarded, and the plates were read using a Typhoon biomolecular imager (Cytiva, GPX4: wavelength 680 nm; GAPDH: 800 nm).

One may read the DC50 as the midpoint of the concentration-degradation curve. Higher therefore signals a less potent degrader. As for `COc1ccc(-c2nc(-c3cc(C(F)(F)F)cc(C(F)(F)F)c3)n(Cc3ccc(C(=O)NCCOCCOCCOCCn4cc(COc5ccc(N(C(=O)CCl)C(C(=O)NCCc6ccccc6)c6cccs6)cc5Cl)nn4)cc3)c2-c2ccc(OC)cc2)cc1` (stereo not drawn) [GDAz-3, 4-((2-(3,5-bis(trifluoromethyl)phenyl)-4,5-bis(4-methoxyphenyl)-1H-imidazol-1-yl)methyl)-N-(2-(2-(2-(2-(4-((2-chloro-4-(2-chloro-N-(2-oxo-2-(phenethylamino)-1-(thiophen-2-yl)ethyl)acetamido)phenoxy)methyl)-1H-1,2,3-triazol-1-yl)ethoxy)ethoxy)ethoxy)ethyl)benzamide], at GPX4 [1], the “Ubiquitination of GPX4” value is “obviously increase the ubiquitination of GPX4”. Further, the “TGI (tumor growth inhibition)” value amounted to 52% in the data set with HT1080 xenograft tumor (30 mg/kg IP once daily) and 67% in the data set on HT1080 xenograft tumor (60 mg/kg IP once daily). The “Body weight of the mice” value in the data set with HT1080 xenograft tumor (30 or 60 mg/kg IP once daily) was “did not obviously reduce the body weight”. Besides, the “H&E staining of major organs (heart, liver, spleen, lung, kidney)” value with HT1080 xenograft tumor (GDAz-3-treated group) is on record as “did not observe significant toxic changes in the major organs”. In addition, the DC50 at GPX4 [2] came out at 250 nM.
